In one test the target is T1, KRAS G12D (Homo sapiens, UniProt P01116, G12D).
T1 construct: AsPc-1-KRAS (G12D)-HiBit-KI cell (Pharmaron); host or cells: AsPc-1-KRAS (G12D)-HiBit-KI cells (HiBiT knock-in at the endogenous KRAS locus)
In words: KRAS G12D HiBit assay. The following applies: AsPc-1-KRAS (G12D)-HiBit-KI cell, compound treatment for 24 hours; for DC50: absolute DC50. In kind it is cell-based. The method, then:
Day 1. […] Allowed cells to reach approximately 80% confluence before splitting. Rinsed cultivated cells in T-75 flasks with 5 mL PBS (Solarbio, P1020-500). […] Inactivated trypsin by adding excessive serum containing medium. Harvested the cells from flask into cell culture medium and counted the cell number.
Day 2. Test compounds were dissolved at 0.3 mM in DMSO (Solarbio, D8371) as stock solution. […] Performed 3-fold, 10-points dilution via transferring 15 μL compound into 30 μL DMSO by using TECAN liquid handler (TECAN, Freedom EVO200).
Day 3. After compound treatment for 24 hours, removed the plate from incubators and equilibrated at room temperature for 15 minutes. Prepared the HiBit reagent (Promega, N3040) by mixing 10 mL of Nano-Glo®-HiBiT Lytic Buffer with 200 μL of Nano-Glo®-HiBiT Lytic Substrate and 100 μL of LgBiT Protein. Added 20 μL of HiBit reagent into each well of the cell plate and spun the plates at room temperature at 1,000 RPM for 1 minute.
The inhibition activity was calculated using the following formula:
(§1) [formula] where HC (high control) is obtained from cells treated with 0.1% DMSO only.
On the technique in general: With HiBiT, luminescence reflects the tagged protein that the partner subunit can reach.

The target of another test is T2, KRAS G12V (Homo sapiens, UniProt P01116, G12V).
T2 construct: SW620-KRAS (G12V)-HiBit-KI cell (Pharmaron); host or cells: SW620-KRAS (G12V)-HiBit-KI cells (HiBiT knock-in at the endogenous KRAS locus)
Briefly: KRAS G12V HiBit assay. The settings on record: SW620-KRAS (G12V)-HiBit-KI cells, compound treatment for 24 hours, class symbols. The test is classed as cell-based. How it is done:
Day 1. […] Rinsed cultivated cells in T-75 flasks with 5 mL PBS (Solarbio, P1020-500). […] Inactivated trypsin by adding excessive serum containing medium. Harvested the cells from flask into cell culture medium and counted the cell number.
Day 2. Test compounds were dissolved at 0.3 mM in DMSO (Solarbio, D8371) as stock solution. […] Performed 3-fold, 10-points dilution via transferring 15 μL compound into 30 μL DMSO by using TECAN liquid handler (TECAN, Freedom EVO200). […] After compound treatment for 24 hours, the plate was removed from incubators and equilibrated at room temperature for 15 minutes. Prepare the HiBit reagent (Promega, N3040) by mixing 10 mL of Nano-Glo®-HiBiT Lytic Buffer with 200 μL of Nano-Glo®-HiBiT Lytic Substrate and 100 μL of LgBiT Protein. Added 20 μL of HiBit reagent into each well of the cell plate and spun the plates at room temperature at 1,000 RPM for 1 minute.
The degradation activity was calculated using the following formula:
as §1

SMILES strings stand for the structures.

T1 sequence (P01116 1-188 isoform P01116-2 G12D): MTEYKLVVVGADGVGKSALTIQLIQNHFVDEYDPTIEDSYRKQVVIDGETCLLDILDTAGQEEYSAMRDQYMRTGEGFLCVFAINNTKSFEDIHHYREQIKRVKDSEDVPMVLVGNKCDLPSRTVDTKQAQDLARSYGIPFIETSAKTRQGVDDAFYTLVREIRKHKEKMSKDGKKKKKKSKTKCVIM
T2 sequence (P01116 1-188 isoform P01116-2 G12V): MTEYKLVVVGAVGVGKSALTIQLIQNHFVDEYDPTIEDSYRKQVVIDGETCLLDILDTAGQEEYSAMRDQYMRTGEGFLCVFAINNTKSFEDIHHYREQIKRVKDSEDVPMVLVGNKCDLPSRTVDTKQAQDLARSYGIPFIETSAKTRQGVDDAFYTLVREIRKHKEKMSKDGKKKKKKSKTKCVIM

In the case of `C[C@H]1CN(CCOCCOc2ccc3c(c2)n(C)c(=O)n3C2CCC(=O)NC2=O)CCCN1c1nccc(-c2noc([C@@]3(C)CCCc4sc(N)c(C#N)c43)n2)n1` (stereo partly drawn) [Compound 209, (4S)-2-amino-4-(3-(2-((2S)-4-(2-(2-((1-(2,6-dioxopiperidin-3-yl)-3-methyl-2-oxo-2,3-dihydro-1H-benzo[d]imidazol-5-yl)oxy)ethoxy)ethyl)-2-methyl-1,4-diazepan-1-yl)pyrimidin-4-yl)-1,2,4-oxadiazol-5-yl)-4-methyl-4,5,6,7-tetrahydrobenzo[b]thiophene-3-carbonitrile], at KRAS G12D (class symbols), the DC50 is > 300 nM and the Dmax was 15 to 50%. The DC50 on KRAS G12V was > 100 nM.
On to `Cn1c(=O)n(C2CCC(=O)NC2=O)c2cccc(C3CCN(CC4CCN(C(=O)CN5CCN(c6nccc(-c7noc([C@@]8(C)CCCc9sc(N)c(C#N)c98)n7)n6)CC5)CC4)CC3)c21` (stereo partly shown) [Compound 222], for which the DC50 at KRAS G12D (class symbols) is > 300 nM; on KRAS G12V, > 100 nM.
Take `CCc1c(F)ccc2cc(O)cc(-c3ncc4c(N5CCC[C@H](O)C5)nc(OC[C@@]56CCCN5[C@H](COC(=O)N5CCC7(CC5)CC(N5CCC(c8ccc9c(c8)n(C)c(=O)n9C8CCC(=O)NC8=O)CC5)C7)CC6)nc4c3F)c12` (stereo partly drawn) [Compound 354, ((3S,7aS)-7a-(((7-(8-ethyl-7-fluoro-3-hydroxynaphthalen-1-yl)-8-fluoro-4-((S)-3-hydroxypiperidin-1-yl)pyrido[4,3-d]pyrimidin-2-yl)oxy)methyl)hexahydro-1H-pyrrolizin-3-yl)methyl 2-(4-(1-(2,6-dioxopiperidin-3-yl)-3-methyl-2-oxo-2,3-dihydro-1H-benzo[d]imidazol-5-yl)piperidin-1-yl)-7-azaspiro[3.5]nonane-7-carboxylate]: the DC50 at KRAS G12D (class symbols) is < 100 nM; at KRAS G12V, < 10 nM.
Consider `C#Cc1c(F)ccc2cccc(-c3ncc4c(N5CCC[C@@](C)(O)C5)nc(OCC5(CN6CCC7(CC6)CC(N6CCN(c8cccc9c8n(C)c(=O)n9C8CCC(=O)NC8=O)CC6)C7)CC5)nc4c3F)c12` (stereo partly shown) [Compound 70], for which the DC50 on KRAS G12D (class symbols) was > 300 nM; on KRAS G12V, > 100 nM.
For `CCc1c(F)ccc2cccc(-c3ncc4c(N5CCC[C@@](C)(O)C5)nc(OC[C@@]56CCCN5[C@H](COC(=O)N5CCC(CN7CCC(c8ccc9c(c8)n(C)c(=O)n9C8CCC(=O)NC8=O)CC7)CC5)CC6)nc4c3F)c12` (stereo partly drawn) [Compound 94, [(3S,8S)-8-[[7-(8-ethyl-7-fluoro-1-naphthyl)-8-fluoro-4-[(3R)-3-hydroxy-3-methyl-1-piperidyl]pyrido[4,3-d]pyrimidin-2-yl]oxymethyl]-1,2,3,5,6,7-hexahydropyrrolizin-3-yl]methyl-4-[[4-[1-(2,6-dioxo-3-piperidyl)-3-methyl-2-oxo-benzimidazol-5-yl]-1-piperidyl]methyl]piperidine-1-carboxylate], at KRAS G12D (class symbols), the DC50 is < 100 nM and the Dmax was > 50%. The DC50 at KRAS G12V is > 100 nM.
With `Cn1c(=O)n(C2CCC(=O)NC2=O)c2cc(C3CCN(CC4CCN(C(=O)CN5CCN(c6nccc(-c7noc([C@@]8(C)CCCc9sc(N)c(C#N)c98)n7)n6)CC5)CC4)CC3)ccc21` (stereo partly shown) [Compound 223], the DC50 on KRAS G12D (numeric bounds given in place of class symbols) was > 231 nM; on KRAS G12V, > 100 nM.
In the case of `C#Cc1c(F)ccc2cccc(-c3ncc4c(N5CCC[C@@](C)(O)C5)nc(OCC5(CN6CCC(N7CCC(c8ccc9c(C%10CCC(=O)NC%10=O)nn(C)c9c8)CC7)CC6)CC5)nc4c3F)c12` (stereo partly shown) [Compound 57], the values for the DC50 on KRAS G12D (class symbols) and on KRAS G12V were < 100 nM and > 100 nM, respectively.
In the same order, the values of `CCc1c(F)ccc2cc(O)cc(-c3ncc4c(N5CCC[C@@](C)(O)C5)nc(OC[C@@]56CCCN5[C@H](COC(=O)N5CCC(CN7CC(c8ccc9c(c8)n(C)c(=O)n9C8CCC(=O)NC8=O)C7)CC5)CC6)nc4c3F)c12` (stereo partly drawn) [Compound 395, ((3S,7aS)-7a-(((7-(8-ethyl-7-fluoro-3-hydroxynaphthalen-1-yl)-8-fluoro-4-((R)-3-hydroxy-3-methylpiperidin-1-yl)pyrido[4,3-d]pyrimidin-2-yl)oxy)methyl)hexahydro-1H-pyrrolizin-3-yl)methyl 4-((3-(1-(2,6-dioxopiperidin-3-yl)-3-methyl-2-oxo-2,3-dihydro-1H-benzo[d]imidazol-5-yl)azetidin-1-yl)methyl)piperidine-1-carboxylate] are < 100 nM and 10 to 100 nM.
Turning to `CCc1c(F)ccc2cc(O)cc(-c3ncc4c(N5CCC[C@@](C)(O)C5)nc(OC[C@@]56CCCN5[C@H](COC(=O)N5CCC(CN7CC8(CC(c9ccc%10c(c9)n(C)c(=O)n%10C9CCC(=O)NC9=O)C8)C7)CC5)CC6)nc4c3F)c12` (stereo partly drawn) [Compound 366, ((3S,7aS)-7a-(((7-(8-ethyl-7-fluoro-3-hydroxynaphthalen-1-yl)-8-fluoro-4-((R)-3-hydroxy-3-methylpiperidin-1-yl)pyrido[4,3-d]pyrimidin-2-yl)oxy)methyl)hexahydro-1H-pyrrolizin-3-yl)methyl 4-((6-(1-(2,6-dioxopiperidin-3-yl)-3-methyl-2-oxo-2,3-dihydro-1H-benzo[d]imidazol-5-yl)-2-azaspiro[3.3]heptan-2-yl)methyl)piperidine-1-carboxylate], the DC50 is < 100 nM on KRAS G12D (class symbols) and 10 to 100 nM on KRAS G12V.
`C#Cc1c(F)ccc2cccc(-c3ncc4c(N5CCC[C@@](C)(O)C5)nc(OCC5(CN6CCC(CN7CCN(c8cccc9c8n(C)c(=O)n9C8CCC(=O)NC8=O)CC7)CC6)CC5)nc4c3F)c12` (stereo partly shown) [Compound 73]: the DC50 at KRAS G12D (class symbols) is > 300 nM; at KRAS G12V, > 100 nM.
`CCc1c(F)ccc2cc(O)cc(-c3ccc4c(N5CCC[C@@](C)(O)C5)nc(OC[C@@]56CCCN5[C@H](COC(=O)N5CCC(CN7CCC(c8ccc9c(c8)n(C)c(=O)n9C8CCC(=O)NC8=O)CC7)CC5)CC6)nc4c3F)c12` (stereo partly shown) [Compound 146]: the DC50 at KRAS G12D (class symbols) is < 100 nM; on KRAS G12V it was < 10 nM.
For the compound `C#Cc1c(F)ccc2cc(O)cc(-c3ncc4c(N5CCC[C@@](C)(O)C5)nc(OCC5(CN6CCC(CN7CCC(c8cccc9c8n(C)c(=O)n9C8CCC(=O)NC8=O)CC7)CC6)CC5)nc4c3F)c12` (stereo partly shown) [Compound 65], the DC50 on KRAS G12D (class symbols) was < 100 nM; on KRAS G12V, > 100 nM.
On to `C[C@H]1CN(CC(=O)N2CCC(CN3CCC(c4ccc5c(c4)n(C)c(=O)n5C4CCC(=O)NC4=O)CC3)CC2)CCCN1c1nccc(-c2noc([C@]3(C)CCCc4sc(N)c(C#N)c43)n2)n1` (stereo partly drawn) [Compound 211, (4R)-2-amino-4-(3-{2-[(2S)-4-{2-[4-({4-[1-(2,6-dioxopiperidin-3-yl)-3-methyl-2-oxo-1,3-benzodiazol-5-yl]piperidin-1-yl}methyl)piperidin-1-yl]-2-oxoethyl}-2-methyl-1,4-diazepan-1-yl]pyrimidin-4-yl}-1,2,4-oxadiazol-5-yl)-4-methyl-6,7-dihydro-5H-1-benzothiophene-3-carbonitrile], for which, at KRAS G12D (class symbols), the DC50 is > 300 nM and the Dmax was < 15%. The DC50 on KRAS G12V is > 100 nM.
In the case of `C#Cc1c(F)ccc2cc(O)cc(-c3ncc4c(N5CCC[C@@](C)(O)C5)nc(OC[C@@]56CCCN5[C@H](COC(=O)N5CCC(CN7CCC(c8ccc9c(c8)n(C8CCC(=O)NC8=O)c(=O)n9C)CC7)CC5)CC6)nc4c3F)c12` (stereo partly shown) [Compound 135], the DC50 at KRAS G12D (class symbols) is > 300 nM; at KRAS G12V, > 100 nM.

The values are drawn from patent US12599672B2, “KRAS proteolysis targeting chimeras” (PAQ Therapeutics Inc., priority 2023, dated 2026).
